Reference: PubChem BioAssay (NCI)
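In this assay, cells in 96-well plates receive the compound at five concentrations for 48 hours. Endpoints are linearly interpolated between the surrounding concentrations. TGI is the concentration that stops growth completely.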

Experiments:
Assay in all cases: inhibition of tumour cell growth, NCI panel, 48 h
[1] = system: DLD-1 colon
[2] = system: DMS 114 small cell lung
[3] = system: DMS 273 small cell lung
[4] = system: EKVX NSCLC
[5] = system: HOP-18 NSCLC
[6] = system: KM20L2 colon
[7] = system: LOX IMVI melanoma
[8] = system: LXFL 529 NSCLC
[9] = system: M14 melanoma
[10] = system: M19-MEL melanoma
[11] = system: OVCAR-5 ovarian
[12] = system: SNB-78 CNS
[13] = system: U251 CNS
[14] = system: XF 498 CNS
[15] = system: RXF-631 renal
[16] = system: MDA-N
[17] = system: NCI/ADR-RES ovarian
[18] = system: PC-3 prostate

Row | SMILES | TGI [1] [µM] | TGI [2] [µM] | TGI [3] [µM] | TGI [4] [µM] | TGI [5] [µM] | TGI [6] [µM] | TGI [7] [µM] | TGI [8] [µM] | TGI [9] [µM] | TGI [10] [µM] | TGI [11] [µM] | TGI [12] [µM] | TGI [13] [µM] | TGI [14] [µM] | TGI [15] [µM] | TGI [16] [µM] | TGI [17] [µM] | TGI [18] [µM]
1 | C[Si](C)(C)/C=C/CN1C(=O)CCC1=O | > 100 | > 100 | > 100 | > 100 | > 100 | > 100 | > 100 | > 100 | > 100 | > 100 | > 100 | > 100 | > 100 | > 100 | – | – | – | –
2 | COc1cc2c(cc1OC)[C@H]1C(COC(=O)Nc3ccccc3)CN1CC2 (stereo partly specified) | > 100 | – | > 100 | – | > 100 | – | > 100 | > 100 | > 100 | > 100 | > 100 | – | > 100 | – | – | – | – | –
3 | CCOC(OC1=C(C#N)CCCC1)C(CC)[Se]c1ccccc1[N+](=O)[O-] (stereo unspecified) | 35.6 | 30.1 | 36.2 | 70 | 74.1 | 31.4 | 30.9 | 89.2 | 37.8 | 37.2 | 66.8 | > 100 | 30.9 | 61.5 | – | – | – | –
4 | COC(=O)C(C#N)C1NC(=O)c2ccccc21 (stereo unspecified) | > 100 | > 100 | > 100 | > 100 | > 100 | > 100 | > 100 | – | > 100 | > 100 | > 100 | > 100 | > 100 | – | > 100 | – | – | –
5 | C/C(=C\CC/C=C(\C)CC/C=C(\C)CCC1SC1(C)C)CC/C=C(\C)CCC1OC1(C)C (stereo unspecified) | > 100 | > 100 | > 100 | > 100 | > 100 | > 100 | – | > 100 | > 100 | > 100 | – | – | > 100 | > 100 | – | – | – | –
6 | Cn1c(=O)[nH]c2c(c1=O)C(=O)CN2 | > 100 | > 100 | > 100 | > 100 | > 100 | > 100 | > 100 | > 100 | > 100 | > 100 | > 100 | > 100 | > 100 | > 100 | – | – | – | –
7 | COc1cc2cnc3c4cc(OC)c(OC(C)C)cc4ccc3c2cc1OC | > 100 | > 100 | > 100 | > 100 | > 100 | > 100 | > 100 | > 100 | > 100 | > 100 | > 100 | > 100 | > 100 | – | > 100 | – | – | –
8 | CC(O)C1OC(n2ccc(=O)[nH]c2=O)CC1n1cncn1 (stereo unspecified) | > 100 | > 100 | > 100 | > 100 | – | > 100 | > 100 | > 100 | > 100 | > 100 | > 100 | – | > 100 | > 100 | – | – | – | –
9 | CN(C(=O)c1ccccc1)c1ccc2c(c1)C(=O)c1ccccc1C2=O | – | > 100 | > 100 | > 100 | – | > 100 | > 100 | > 100 | > 100 | > 100 | > 100 | – | > 100 | > 100 | – | – | – | –
10 | COC(=O)/C(=N\N)C(C(=O)C(=O)Nc1nc(=S)[nH][nH]1)c1nc2ccc([N+](=O)[O-])cc2[nH]c1=O (stereo unspecified) | > 100 | > 100 | > 100 | > 100 | > 100 | > 100 | > 100 | > 100 | > 100 | > 100 | > 100 | > 100 | > 100 | – | > 100 | – | – | –
11 | CC(C)=CCOc1ccc(-c2coc3cc4c(c(O)c3c2=O)C=CC(C)(C)O4)cc1 | > 100 | > 100 | – | > 100 | – | > 100 | > 100 | > 100 | – | > 100 | > 100 | > 100 | > 100 | > 100 | – | – | – | –
12 | C/C(=N/N)c1sc(-c2nc(C)c(/C(C)=N\N)s2)nc1C | > 100 | > 63.8 | > 58.8 | > 100 | > 100 | > 100 | > 75.2 | > 100 | > 100 | > 100 | > 100 | > 100 | > 100 | > 100 | – | – | – | –
13 | CCOC(=O)c1ccn2c(c1)c(C#N)c1nc3ccccc3nc12 | > 100 | > 100 | > 100 | > 100 | – | > 100 | > 100 | > 100 | > 100 | > 100 | > 100 | 57.6 | > 100 | 93.3 | – | – | – | –
14 | N#CCCN(CCC#N)c1ccc(/C=C(/NC(=O)Nc2ccccc2Cl)NC(=O)c2cc([N+](=O)[O-])ccc2Cl)cc1 | > 100 | > 100 | > 100 | > 100 | > 100 | > 100 | > 100 | > 100 | > 100 | > 100 | > 100 | > 100 | > 100 | > 100 | > 100 | – | – | –
15 | COC(=O)C(=O)C(C(C)=O)C(=O)C(=O)Nc1ccc(C)cc1C (stereo unspecified) | > 100 | > 100 | > 100 | > 100 | – | > 100 | > 100 | > 100 | > 100 | > 100 | > 100 | – | > 100 | > 100 | – | – | – | –
16 | CCCCCC(/C=C/c1ncccc1OCCCCCC(=O)O)=N\NC1=NCCN1 | – | > 100 | > 100 | > 100 | – | > 100 | > 100 | > 100 | > 100 | > 100 | > 100 | – | – | 54.8 | – | – | – | –
17 | COC1(C)CNCC(C)(C)NC(=O)C(C)(OC)CNCC(C)(C)NC1=O (stereo unspecified) | > 100 | > 100 | > 100 | > 100 | > 100 | > 100 | > 100 | > 100 | > 100 | > 100 | > 100 | > 100 | > 100 | – | > 100 | – | – | –
18 | CC(=O)OCC1OC(n2c(O)c(N=NC(N)=S)c3ccc([N+](=O)[O-])cc32)C(OC(C)=O)C1OC(C)=O (stereo unspecified) | > 100 | 61.9 | 57.5 | > 100 | > 100 | > 100 | 43.1 | > 100 | > 100 | 38.3 | > 100 | > 100 | 87.6 | 94.7 | – | – | – | –
19 | O=C1NC(N2CCCCC2)=N/C1=C\c1ccco1 | – | – | – | > 100 | – | – | > 100 | – | > 100 | – | > 100 | – | > 100 | – | – | > 100 | > 100 | > 100
20 | Cc1nn(C(=O)c2ccc(Cl)cc2)c2c1C(c1ccc(Cl)cc1)SC(N)=N2 (stereo unspecified) | – | – | – | > 10 | – | – | > 10 | – | > 10 | – | > 10 | – | > 10 | – | – | > 10 | > 10 | > 10
21 | O=C(CCN1CCCC1)c1ccc(Oc2ccc(F)cc2)cc1 | – | – | – | > 100 | – | – | > 100 | – | 99.5 | – | > 100 | – | > 100 | – | – | > 100 | > 100 | > 100
22 | CC(C)CC1NC(=O)CCC(NC(=O)C(Cc2ccc(O)cc2)NC(=O)OCc2ccccc2)C(=O)NC(Cc2ccccc2)C(=O)NC(Cc2ccccc2)NC1=O (stereo unspecified) | – | – | – | > 100 | – | – | > 100 | – | > 100 | – | > 100 | – | > 100 | – | – | > 100 | > 100 | > 100
